Test results taken from patent publication US20100254922A1, “COSMETIC AND/OR DERMATOLOGICAL COMPOSITION BASED ON N,N'-[…] ACID ESTER(S)” (L'OREAL, priority 2008, published 2010).

Assay: Solubility test of the ester compound in test solvents
Assay type: physicochemical
Protocol: The solubility tests were performed with the diisopropyl ester of N,N′-bis(benzyl)ethylenediamine-N,N′-diacetic acid.
The test solvent was poured into a beaker, an amount of the ester compound was added with magnetic stirring and the mixture was left to stand for between 1 hour and 24 hours. The mixture was then heated to 50° C. and then cooled to room temperature (25° C.) over 24 hours. The system was then observed to see if the amount of the ester compound introduced recrystallized or remained dissolved.
The amount of ester compound that can be dissolved in the test solvent was determined in this manner. The maximum value corresponds to the amount at and above which the ester compound stops dissolving in the evaluated solvent.

## CC(C)OC(=O)CN(CCN(CC(=O)OC(C)C)Cc1ccccc1)Cc1ccccc1 [diisopropyl ester of N,N′-bis(benzyl)ethylenediamine-N,N′-diacetic acid]
solvent: 2-Ethylhexyl salicylate, 25° C.
  Weight % of dissolved ester compound: 10 Weight %
solvent: 2-Octyldodecanol, 25° C.
  Weight % of dissolved ester compound: 10 Weight %
solvent: Apricot oil, 25° C.
  Weight % of dissolved ester compound: 12 Weight %
solvent: Butylene glycol, 25° C.
  Weight % of dissolved ester compound: 1 Weight %
solvent: Cyclohexasiloxane, 25° C.
  Weight % of dissolved ester compound: 4.7 Weight %
solvent: Cyclopentasiloxane, 25° C.
  Weight % of dissolved ester compound: 4.5 Weight %
solvent: Dimethyl isosorbide, 25° C.
  Weight % of dissolved ester compound: 38 Weight %
solvent: Dipropylene glycol, 25° C.
  Weight % of dissolved ester compound: 10.7 Weight %
solvent: Ethanol, 25° C.
  Weight % of dissolved ester compound: 8 Weight %
solvent: Glycerol, 25° C.
  Weight % of dissolved ester compound: 1 Weight %
solvent: Hexylene glycol, 25° C.
  Weight % of dissolved ester compound: 11.5 Weight %
solvent: Hydrogenated isoparaffin (Parleam from NOF), 25° C.
  Weight % of dissolved ester compound: 9 Weight %
solvent: Isononyl isononanoate, 25° C.
  Weight % of dissolved ester compound: 16 Weight %
solvent: Isopropyl N-lauroylsarcosinate (Eldew SL-205 from Ajinomoto), 25° C.
  Weight % of dissolved ester compound: 18 Weight %
solvent: Isopropyl myristate, 25° C.
  Weight % of dissolved ester compound: 11.5 Weight %
solvent: Isopropyl palmitate, 25° C.
  Weight % of dissolved ester compound: 9 Weight %
solvent: Phenyl trimethicone (Dow Corning 556), 25° C.
  Weight % of dissolved ester compound: 12 Weight %
solvent: Propylene glycol, 25° C.
  Weight % of dissolved ester compound: 1 Weight %
solvent: Squalane, 25° C.
  Weight % of dissolved ester compound: 9 Weight %
solvent: Water, heated to 50° C., cooled to room temperature (25° C.) over 24 hours
  Weight % of dissolved ester compound: Insoluble
